Measurements from the NIST ThermoML archive (doi:10.1016/j.jct.2016.10.035).
Numbers after ± are expanded uncertainties.

Conditions: 298.15 K; 100 kPa; Crystal; X-ray diffraction

mass density: 3155 ± 12 kg/m3
Structure (SMILES): O=P([O-])([O-])[O-].O=P([O-])([O-])[O-].O=P([O-])([O-])[O-].[Ca+2].[Ca+2].[Ca+2].[Ca+2].[Ca+2].[OH-] [hydroxyapatite]
